These results are taken from ChEMBL document CHEMBL5029195, “Substituted Imidazole Carboxamides as Novel Antibacterial Agents” (2022).

Each structure is given as a SMILES string.

The first test concerns Acinetobacter baumannii. Nature of the test: Antibacterial activity against Acinetobacter baumannii ATCC 17978 assessed as inhibition of bacterial growth after 16 hrs by two fold dilution method. Format: functional.
Broadly, the IC90 is the concentration needed for an effect of 90%. For the molecule `Cn1c(-c2ccc(OCC#N)c(F)c2F)cnc1C(=O)Nc1ccc(C(=O)N2CCC(C(=O)N3CCSCC3)CC2)c(Cl)c1`, the IC90 turned out to be 0.21 µM.

As for `CN(C)CCCN1CCN(C(=O)c2ccc(NC(=O)c3ncc(-c4ccc(OCC#N)c(F)c4F)n3C)cc2Cl)CC1`, the IC90 was 0.07 µM.

With `CNCCN1CCN(C(=O)c2ccc(NC(=O)c3ncc(-c4ccc(OC)c(F)c4F)n3C)cc2Cl)CC1`, the 90% effect concentration (IC90) stood at 0.08 µM.

Take `COc1ccc(-c2cnc(C(=O)Nc3ccc(C(=O)N4CCC(CN)CC4)c(Cl)c3)n2C)c(F)c1F`: the IC90 was determined as 0.3 µM.

For `COc1ccc(-c2cnc(C(=O)Nc3ccc(C(=O)N4CCN(C(=O)[C@@H]5C[C@@H](O)CN5)CC4)c(Cl)c3)n2C)c(F)c1F`, the concentration for an effect of 90% (IC90) came out at 0.1 µM.

For `CCc1cc(NC(=O)c2ncc(-c3ccc(OC)cc3Cl)n2C)ccc1C(=O)N1CCN(CCNC)CC1`, the IC90 worked out at 2.3 µM.

The next test concerns Acinetobacter baumannii. Nature of the test: Antibacterial activity against Acinetobacter baumannii ATCC 17961 assessed as inhibition of bacterial growth after 16 hrs by two fold dilution method. The class given is functional.
As to `CCc1cc(NC(=O)c2ncc(-c3ccc(OC)c(F)c3F)n2C)ccc1C(=O)N1CCN(CCCN(C)C)CC1`, the IC90 came out at 0.26 µM.

As to `COc1ccc(-c2cnc(C(=O)Nc3ccc(C(=O)N4CCC(OCCN)CC4)c(Cl)c3)n2C)c(F)c1F`, the 90% effect concentration (IC90) was 0.04 µM.

`COc1ccc(-c2cnc(C(=O)Nc3ccc(C(=O)N4CCC(C(=O)[C@H]5CCNC[C@H]5O)CC4)c(Cl)c3)n2C)c(F)c1F`: the IC90 stood at 0.09 µM.

`COc1ccc(-c2cnc(C(=O)Nc3ccc(C(=O)N4CCC(C(=O)NCCC(=O)O)CC4)c(Cl)c3)n2C)c(F)c1F`: the 90% effect concentration (IC90) came to 3.3 µM.

In the case of `Cn1c(-c2ccc(OC(F)F)c(F)c2F)cnc1C(=O)Nc1ccc(C(=O)N2CCC(C(=O)N3CCC(C(N)=O)C3)CC2)c(Cl)c1` (centres undefined), the IC90 worked out at 0.15 µM.

On to `Cn1c(-c2ccc(OC(F)F)c(F)c2F)cnc1C(=O)Nc1ccc(C(=O)N2CCC(C(=O)NC[C@H]3CCNC3)CC2)c(Cl)c1`, for which the concentration for an effect of 90% (IC90) is 0.04 µM.

On to `COc1ccc(-c2cnc(C(=O)Nc3ccc(C(=O)N4CCC(C(=O)[C@@H]5CCNC[C@H]5O)CC4)c(Cl)c3)n2C)c(F)c1F`, for which the 90% effect concentration (IC90) stood at 0.1 µM.

For the molecule `COc1ccc(-c2cnc(C(=O)Nc3ccc(C(=O)N4CCC(CCN)CC4)c(Cl)c3)n2C)c(F)c1F`, the IC90 amounted to 0.03 µM.
